Compound in test [1]: T1, C=CC(=O)Nc1cc2c(Nc3ccc(F)c(Cl)c3)ncnc2cc1OCCCN1CCOCC1 [CANERTINIB]
The test can be described thus: surviving fraction relative to DMSO-only wells; higher = less growth inhibition. To be noted: exposure time: 5 days. The procedure, abridged:
(§1)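 Inhibitors were tested at 0.5, 1, 5, 10, 50, 100, 500 and 1000 nM, applied continuously for five days beginning 24 hours after log-phase tumour cells were seeded at 250–500 per well in 384-well plates. CellTiter-Glo luminescence served as the viability measure, expressed as surviving fraction against the median of DMSO-only wells. Each line, screened three times, was kept only with replicate Pearson r >0.7 and median Z' >0.3.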

Compound in test [2]: Cn1cc(C2=Nc3cc(NC(=O)C(N)C4CCCCC4)cc4c3C2=CNNC4=O)cn1
Described as above. To be noted: exposure time: 5 days. The procedure, abridged: as §1

Compound in test [3]: T1, CANERTINIB
The test can be described thus: area under dose-response curve of surviving fraction (unscaled, Aref=0) (surviving fraction x log10(nM)); higher = more resistant. To be noted: exposure time: 5 days; dose range 0.5-1000 nM. The procedure, abridged: (§2)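 Three screens per tumour cell line were run in 384-well plates at eight inhibitor concentrations from 0.5 to 1000 nM over five days. Surviving fractions, from CellTiter-Glo luminescence normalised to DMSO-only wells, were fitted with 3-parameter logistic curves in the drc R package. The reported area under the curve is the unscaled activity area. It spans log10 dose, and Aref is 0.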

Compound in test [4]: CCCCCCCCCCCCCCCC(=O)Nc1ccn([C@@H]2O[C@H](CO)[C@@H](O)[C@@H]2C#N)c(=O)n1 [SAPACITABINE]
Described as above. To be noted: exposure time: 5 days; dose range 0.5-1000 nM. The procedure, abridged:
as §2

Compound in test [5]: CC[C@@H]1C(=O)N(C)c2cnc(Nc3ccc(C(=O)NC4CCN(C)CC4)cc3OC)nc2N1C1CCCC1 [BI-2536]
Described as above. To be noted: exposure time: 5 days; dose range 0.5-1000 nM. The procedure, abridged:
as §2

Compound in test [6]: CNC(=O)c1ccc(N2C(=S)N(c3ccc(C#N)c(C(F)(F)F)c3)C(=O)C2(C)C)cc1F [MDV3100]
The description is as above. To be noted: exposure time: 5 days; dose range 0.5-1000 nM. The procedure, abridged:
as §2

± gives the standard deviation of the averaged measurements.

Consider HCC78 LUNG, for which the surviving fraction was determined as 0.848 ± 0.35 in test [1] (0.5 nM); 0.812 ± 0.13 in test [1] (1 nM); 0.946 ± 0.086 in test [1] (5 nM); 0.983 ± 0.23 in test [1] (10 nM); 0.638 ± 0.043 in test [1] (50 nM); 0.775 ± 0.084 in test [1] (100 nM). The surviving fraction in test [1] (500 nM) came to 0.532 ± 0.081; in test [1] (1000 nM), 0.426 ± 0.18; in test [2] (0.5 nM), 0.91 ± 0.095; in test [2] (1 nM), 1.13 ± 0.26; in test [2] (5 nM) it was 0.993 ± 0.07; in test [2] (10 nM), 1.03 ± 0.17. Further, the surviving fraction in test [2] (50 nM) stood at 0.887 ± 0.11; in test [2] (100 nM), 0.471 ± 0.29; in test [2] (500 nM) it was 0.0453 ± 0.011; in test [2] (1000 nM), 0.0623 ± 0.013. Also, the “area under dose-response curve” value in test [3] is 2.55; in test [4], 1.52; in test [5], 0.803; in test [6] it was 2.9.
MCF7 BREAST: the surviving fraction in test [1] (0.5 nM) was determined as 0.838 ± 0.027; in test [1] (1 nM), 0.831 ± 0.023; in test [1] (5 nM), 0.818 ± 0.02; in test [1] (10 nM), 0.79 ± 0.018; in test [1] (50 nM), 0.888 ± 0.02; in test [1] (100 nM), 0.859 ± 0.039. Besides, the surviving fraction in test [1] (500 nM) stood at 0.854 ± 0.082; in test [1] (1000 nM) it was 0.808 ± 0.026; in test [2] (0.5 nM), 0.913 ± 0.043; in test [2] (1 nM), 0.918 ± 0.052; in test [2] (5 nM), 0.92 ± 0.023; in test [2] (10 nM), 0.865 ± 0.022. The surviving fraction in test [2] (50 nM) came to 0.989 ± 0.022; in test [2] (100 nM), 0.885 ± 0.029; in test [2] (500 nM), 0.745 ± 0.02; in test [2] (1000 nM), 0.575 ± 0.011. For the same test system, the “area under dose-response curve” value is 2.76 in test [3], 2.58 in test [4], 1.8 in test [5] and 2.89 in test [6].
As for SIHA CERVIX, the surviving fraction was found to be 0.897 ± 0.035 in test [1] (0.5 nM); 0.809 ± 0.04 in test [1] (1 nM); 0.978 ± 0.023 in test [1] (5 nM); 0.867 ± 0.049 in test [1] (10 nM); 0.951 ± 0.14 in test [1] (50 nM); 0.977 ± 0.055 in test [1] (100 nM). In addition, the surviving fraction was found to be 0.871 ± 0.027 in test [1] (500 nM); 0.727 ± 0.027 in test [1] (1000 nM); 1.053 ± 0.0049 in test [2] (0.5 nM); 0.972 ± 0.02 in test [2] (1 nM); 1.06 ± 0.086 in test [2] (5 nM); 1.06 ± 0.043 in test [2] (10 nM). Further, the surviving fraction in test [2] (50 nM) worked out at 1.02 ± 0.05; in test [2] (100 nM), 1.05 ± 0.07; in test [2] (500 nM), 0.917 ± 0.059; in test [2] (1000 nM), 0.524 ± 0.024. Further, the “area under dose-response curve” value in test [3] was determined as 2.92; in test [4] it was 3.12; in test [5], 1.43; in test [6] it was 3.05.
Regarding A549 LUNG, the surviving fraction worked out at 0.915 ± 0.018 in test [1] (0.5 nM); 0.909 ± 0.018 in test [1] (1 nM); 0.93 ± 0.014 in test [1] (5 nM); 0.873 ± 0.01 in test [1] (10 nM); 0.955 ± 0.046 in test [1] (50 nM); 0.965 ± 0.026 in test [1] (100 nM). The surviving fraction is 0.9707 ± 0.0042 in test [1] (500 nM); 0.948 ± 0.05 in test [1] (1000 nM); 1.04 ± 0.034 in test [2] (0.5 nM); 1.08 ± 0.082 in test [2] (1 nM); 1.03 ± 0.021 in test [2] (5 nM); 1.03 ± 0.018 in test [2] (10 nM). Further, the surviving fraction in test [2] (50 nM) stood at 1.08 ± 0.048; in test [2] (100 nM), 1.02 ± 0.033; in test [2] (500 nM) it was 1.06 ± 0.029; in test [2] (1000 nM), 1.01 ± 0.02. Moreover, the “area under dose-response curve” value was found to be 3.08 in test [3], 2.57 in test [4], 1.16 in test [5] and 3.23 in test [6].
Take SAOS2 BONE: the surviving fraction in test [1] (0.5 nM) stood at 0.853 ± 0.028; in test [1] (1 nM), 0.85 ± 0.042; in test [1] (5 nM), 0.877 ± 0.06; in test [1] (10 nM) it was 0.818 ± 0.015; in test [1] (50 nM) it was 1.02 ± 0.038; in test [1] (100 nM) it was 1.04 ± 0.12. The surviving fraction was determined as 0.815 ± 0.026 in test [1] (500 nM); 0.703 ± 0.063 in test [1] (1000 nM); 1.1493 ± 0.00058 in test [2] (0.5 nM); 1.08 ± 0.049 in test [2] (1 nM); 1.073 ± 0.0011 in test [2] (5 nM); 1.17 ± 0.077 in test [2] (10 nM). Besides, the surviving fraction in test [2] (50 nM) was determined as 0.882 ± 0.065; in test [2] (100 nM), 0.728 ± 0.03; in test [2] (500 nM), 0.113 ± 0.017; in test [2] (1000 nM), 0.0473 ± 0.0046. For the same test system, the “area under dose-response curve” value in test [3] was 2.87; in test [4] it was 2.19; in test [5], 0.684; in test [6] it was 3.65.
For the test system SG43 HEADNECK, the surviving fraction in test [1] (0.5 nM) turned out to be 1.05 ± 0.074; in test [1] (1 nM), 1.06 ± 0.1; in test [1] (5 nM), 0.772 ± 0.21; in test [1] (10 nM) it was 0.816 ± 0.14; in test [1] (50 nM), 0.387 ± 0.23; in test [1] (100 nM), 0.223 ± 0.027. The surviving fraction turned out to be 0.265 ± 0.05 in test [1] (500 nM); 0.183 ± 0.0075 in test [1] (1000 nM); 1.08 ± 0.17 in test [2] (0.5 nM); 0.969 ± 0.1 in test [2] (1 nM); 0.929 ± 0.19 in test [2] (5 nM); 1.01 ± 0.37 in test [2] (10 nM). Further, the surviving fraction in test [2] (50 nM) amounted to 1.11 ± 0.21; in test [2] (100 nM) it was 1.06 ± 0.15; in test [2] (500 nM) it was 0.888 ± 0.098; in test [2] (1000 nM), 0.968 ± 0.097. In addition, the “area under dose-response curve” value in test [3] was determined as 1.92; in test [4] it was 3.5; in test [5], 1.83; in test [6], 3.06.
Consider “JURKAT HAEMATOPOIETIC AND LYMPHOID TISSUE”, for which the surviving fraction in test [1] (0.5 nM) worked out at 1.01 ± 0.025; in test [1] (1 nM), 0.977 ± 0.045; in test [1] (5 nM) it was 1.02 ± 0.018; in test [1] (10 nM), 0.952 ± 0.041; in test [1] (50 nM) it was 0.978 ± 0.03; in test [1] (100 nM), 0.978 ± 0.014. Besides, the surviving fraction in test [1] (500 nM) is 1.01 ± 0.031; in test [1] (1000 nM), 0.839 ± 0.043; in test [2] (0.5 nM) it was 1.08 ± 0.016; in test [2] (1 nM), 1.13 ± 0.013; in test [2] (5 nM), 1.07 ± 0.021; in test [2] (10 nM), 1.06 ± 0.036. For the same test system, the surviving fraction in test [2] (50 nM) is 0.868 ± 0.019; in test [2] (100 nM), 0.295 ± 0.022; in test [2] (500 nM), 0.023; in test [2] (1000 nM) it was 0.0237 ± 0.00058. Also, the “area under dose-response curve” value in test [3] was 3.29; in test [4], 1.09; in test [5], 0.479; in test [6], 3.49.
